Among the data in ChEMBL document CHEMBL2321698, “Novel Amino-Nicotinamide Derivatives as Modulators of KCNQ2/3 Potassium Channels” (2013) are Activity and ED50 values, retold here.

The target in test [1] is T1, Voltage-gated potassium channel, KQT; KCNQ2(Kv7.2)/KCNQ3(Kv7.3) (Homo sapiens) (UniProt O43526+O43525). The test can be described thus: Modulation of human KCNQ2/3 channel expressed in CHO-K1 cells by fluorescence assay. It counts as cell-based.
Test [2] has as its system Rattus norvegicus. Nature of the test: Antinociceptive activity in po dosed Sprague-Dawley rat by low intensity tail flick test. The class given is functional. For orientation: Thermal pain tests record how soon the animal reacts.
The target in test [3] is T1, Voltage-gated potassium channel, KQT; KCNQ2(Kv7.2)/KCNQ3(Kv7.3) (Homo sapiens). Nature of the test: Modulation of human KCNQ2/3 channel expressed in CHO-K1 cells by fluorescence assay relative to retigabine. On the set-up: concentration or dose not given beside the values. It counts as cell-based.

As a reminder, the ED50 is the midpoint of the dose-response relation. With `CCSc1nc(N2CCOCC2)cc(C)c1C(=O)NCc1cc(C)cc(F)c1`, the Activity in test [1] came to 56 nM; in test [3], 160%. In test [2], this molecule came in with an ED50 of 78 mg/kg.

With `CCSc1nc(N2CCOCC2)cc(C)c1C(=O)NCCCC(C)C`, the Activity in test [1] was 206 nM; in test [3] it was 215%. It took a dose of 46 mg/kg to reach the 50% effect level in test [2] (ED50).

Take `CCSc1nc(N2CCOCC2)cc(C)c1C(=O)NCc1ccc(F)cc1`: the Activity came to 124 nM in test [1] and 158% in test [3]. Besides, the ED50 in test [2] came out at 94 mg/kg.

For the molecule `Cc1cc(N2CCOCC2)nc(C2CC2)c1C(=O)NC[C@@H]1CCCC[C@H]1O`, the Activity was 483 nM in test [1] and 245% in test [3]. The ED50 in test [2] is 67 mg/kg.

As for `COc1nc(N2CCOCC2)cc(C)c1C(=O)NCc1cccc(F)c1`, the Activity in test [1] amounted to 736 nM; in test [3], 155%. Further, the ED50 in test [2] amounted to 79 mg/kg.

For `CCCc1nc(N2CCOCC2)cc(C)c1C(=O)NCc1cccc(F)c1`, the Activity is 181 nM in test [1] and 176% in test [3]. In test [2], this molecule yielded an ED50 of 81 mg/kg.

`CCSc1nc(N2CCOCC2)cc(C)c1C(=O)NCCCC(C)(C)C`: the Activity turned out to be 42 nM in test [1] and 244% in test [3]. Further, the ED50 in test [2] stood at 100 mg/kg.

On to `CCSc1nc(N2CCOCC2)cc(C)c1C(=O)NCc1cccc(F)c1`, for which the Activity in test [1] came out at 134 nM; in test [3] it was 171%. For the same molecule, the ED50 in test [2] was 4.3 mg/kg.
